# Assay results from US20250296953A1, “3,4-THIAZOLO-STEROIDS AND METHODS OF MAKING AND USING THE SAME” (Arkansas State University - Jonesboro, priority 2018, published 2025).
# Experiments:
# [1] = test system: 60 different human tumor cell lines; assay: NCI Development Therapeutics Program 60 cell line screen, one dose; assay type: cell-based
# SK-MEL-25 = assay: Melanoma cytotoxicity assay (resazurin); assay type: cell-based
# Method in brief: (§1)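 Following 24 h of compound treatment (triplicates, 37° C, 5% CO2) of cells seeded one day earlier at about 4000 per well, viability was gauged with resazurin. IC50 values derive from sigmoidal concentration–viability curves.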
# SK-MEL-28 = assay: Melanoma cytotoxicity assay (resazurin); assay type: cell-based
# Method in brief: as §1
# HCT-15 (Colon Cancer) = assay: NCI 60 one dose screen; assay type: cell-based, human
# RPMI-8226 = assay: NCI 60 five dose screen; conditions: for GI50 / CC50: Homo sapiens; for GI50: RPMI-8226; for CC50: RPMI-8226, read-out: LC50; for TGI: RPMI-8226 (Leukemia), five dose
# SR = assay: NCI 60 five dose screen; conditions: for GI50 / CC50: Homo sapiens, SR; for CC50: read-out: LC50; for TGI: SR (Leukemia), five dose
# [2] = Non-small Cell Lung Cancer, A549/ATCC
# [3] = Non-small Cell Lung Cancer, EKVX
# [4] = Non-small Cell Lung Cancer, HOP-62
# [5] = Non-small Cell Lung Cancer, HOP-92
# [6] = Non-small Cell Lung Cancer, NCI-H23
# [7] = Non-small Cell Lung Cancer, NCI-H226
# [8] = Non-small Cell Lung Cancer, NCI-H322M
# [9] = Non-small Cell Lung Cancer, NCI-H460
structure (smiles),measurement,setting,value
"C[C@]12CCc3sc(Nc4ccc(OC(F)(F)F)cc4)nc3C1=CC[C@@H]1[C@@H]2CC[C@]2(C)C(=O)CC[C@@H]12 [IIa.19, (1S,2R,13R,14S,18S)-2,18-dimethyl-7-[4-(trifluoromethoxy)anilino]-6-thia-8-azapentacyclo[11.7.0.02,10.05,9.014,18]icosa-5(9),7,10-trien-17-one]",Growth Percent,"[1]; Breast Cancer, BT-549",53.50%
same,Growth Percent,"[1]; Breast Cancer, HS 578T",38.46%
same,Growth Percent,"[1]; Breast Cancer, MCF7",17.08%
same,Growth Percent,"[1]; Breast Cancer, MDA-MB-231/ATCC",73.45%
same,Growth Percent,"[1]; Breast Cancer, MDA-MB-468",69.12%
same,Growth Percent,"[1]; Breast Cancer, T-47D",41.82%
same,Growth Percent,"[1]; CNS Cancer, SF-268",68.55%
same,Growth Percent,"[1]; CNS Cancer, SNB-19",56.49%
same,Growth Percent,"[1]; CNS Cancer, SNB-75",68.60%
same,Growth Percent,"[1]; CNS Cancer, U251",34.08%
same,Growth Percent,"[1]; Colon Cancer, COLO 205",67.03%
same,Growth Percent,"[1]; Colon Cancer, HCC-2998",96.47%
same,Growth Percent,"[1]; Colon Cancer, HCT-116",7.77%
same,Growth Percent,"[1]; Colon Cancer, HT29",12.95%
same,Growth Percent,"[1]; Colon Cancer, KM12",53.51%
same,Growth Percent,"[1]; Colon Cancer, SW-620",43.34%
same,Growth Percent,"[1]; Leukemia, CCRF-CEM",5.05%
same,Growth Percent,"[1]; Leukemia, HL-60(TB)",43.98%
same,Growth Percent,"[1]; Leukemia, K-562",8.20%
same,Growth Percent,"[1]; Leukemia, MOLT-4",4.15%
same,Growth Percent,"[1]; Leukemia, RPMI-8226",2.88%
same,Growth Percent,"[1]; Leukemia, SR",16.86%
same,Growth Percent,"[1]; Melanoma, LOX IMVI",34.82%
same,Growth Percent,"[1]; Melanoma, M14",83.90%
same,Growth Percent,"[1]; Melanoma, MALME-3M",76.83%
same,Growth Percent,"[1]; Melanoma, MDA-MB-435",77.59%
same,Growth Percent,"[1]; Melanoma, SK-MEL-2",61.81%
same,Growth Percent,"[1]; Melanoma, SK-MEL-5",95.89%
same,Growth Percent,"[1]; Melanoma, SK-MEL-28",65.29%
same,Growth Percent,"[1]; Melanoma, UACC-62",63.42%
same,Growth Percent,"[1]; Melanoma, UACC-257",84.04%
same,Growth Percent,[1]; [2],67.03%
same,Growth Percent,[1]; [3],78.41%
same,Growth Percent,[1]; [4],80.02%
same,Growth Percent,[1]; [5],74.98%
same,Growth Percent,[1]; [6],75.47%
same,Growth Percent,[1]; [7],74.91%
same,Growth Percent,[1]; [8],77.29%
same,Growth Percent,[1]; [9],53.27%
same,Growth Percent,"[1]; Ovarian Cancer, IGROV1",93.62%
same,Growth Percent,"[1]; Ovarian Cancer, NCI/ADR-RES",81.59%
same,Growth Percent,"[1]; Ovarian Cancer, OVCAR-3",37.42%
same,Growth Percent,"[1]; Ovarian Cancer, OVCAR-4",63.99%
same,Growth Percent,"[1]; Ovarian Cancer, OVCAR-5",91.93%
same,Growth Percent,"[1]; Ovarian Cancer, OVCAR-8",66.51%
same,Growth Percent,"[1]; Ovarian Cancer, SK-OV-3",69.90%
same,Growth Percent,"[1]; Prostate Cancer, DU-145",66.11%
same,Growth Percent,"[1]; Prostate Cancer, PC-3",38.59%
same,Growth Percent,"[1]; Renal Cancer, 786-0",30.50%
same,Growth Percent,"[1]; Renal Cancer, A498",75.00%
same,Growth Percent,"[1]; Renal Cancer, ACHN",71.59%
same,Growth Percent,"[1]; Renal Cancer, CAKI-1",60.44%
same,Growth Percent,"[1]; Renal Cancer, RXF 393",−32.25%
same,Growth Percent,"[1]; Renal Cancer, SN12C",71.17%
same,Growth Percent,"[1]; Renal Cancer, TK-10",98.20%
same,Growth Percent,"[1]; Renal Cancer, UO-31",54.33%
same,SK-MEL-25 (% inhibition),"SK-MEL-25; SK-MEL-25 melanoma cells, 24 hours with compound, resazurin, concentration not given",24%
same,SK-MEL-28 (% inhibition),"SK-MEL-28; SK-MEL-28 melanoma cells, 24 hours with compound, resazurin, concentration not given",97%
same,Growth Percent,HCT-15 (Colon Cancer),38.33%
same,GI50,RPMI-8226,1020 nM
same,CC50,RPMI-8226,> 100000 nM
same,TGI,RPMI-8226,3.77E−6
same,GI50,SR,2740 nM
same,CC50,SR,> 100000 nM
same,TGI,SR,>1.00E−4
"C[C@]12CC[C@H]3[C@@H](CC=C4c5sc(Nc6ccccc6)nc5CC[C@@]43C)[C@@H]1CC[C@@H]2O [IIIa.10, (1S,2R,13R,14S,17S,18S)-7-anilino-2,18-dimethyl-8-thia-6-azapentacyclo[11.7.0.02,10.05,9.014,18]icosa-5(9),6,10-trien-17-ol]",Growth Percent,"[1]; Breast Cancer, BT-549",19.16%
same,Growth Percent,"[1]; Breast Cancer, HS 578T",3.65%
same,Growth Percent,"[1]; Breast Cancer, MCF7",29.18%
same,Growth Percent,"[1]; Breast Cancer, MDA-MB-231/ATCC",35.75%
same,Growth Percent,"[1]; Breast Cancer, MDA-MB-468",−1.00%
same,Growth Percent,"[1]; Breast Cancer, T-47D",16.35%
same,Growth Percent,"[1]; CNS Cancer, SF-268",9.68%
same,Growth Percent,"[1]; CNS Cancer, SNB-19",26.54%
same,Growth Percent,"[1]; CNS Cancer, SNB-75",−5.43%
same,Growth Percent,"[1]; CNS Cancer, U251",−30.05%
same,Growth Percent,"[1]; Colon Cancer, COLO 205",57.13%
same,Growth Percent,"[1]; Colon Cancer, HCC-2998",98.16%
same,Growth Percent,"[1]; Colon Cancer, HCT-116",−81.48%
same,Growth Percent,"[1]; Colon Cancer, HT29",−38.50%
same,Growth Percent,"[1]; Colon Cancer, KM12",15.64%
same,Growth Percent,"[1]; Colon Cancer, SW-620",−19.44%
same,Growth Percent,"[1]; Leukemia, CCRF-CEM",0.74%
same,Growth Percent,"[1]; Leukemia, HL-60(TB)",15.69%
same,Growth Percent,"[1]; Leukemia, K-562",4.96%
same,Growth Percent,"[1]; Leukemia, MOLT-4",6.79%
same,Growth Percent,"[1]; Leukemia, RPMI-8226",−32.33%
same,Growth Percent,"[1]; Leukemia, SR",8.06%
same,Growth Percent,"[1]; Melanoma, LOX IMVI",−81.48%
same,Growth Percent,"[1]; Melanoma, M14",53.44%
same,Growth Percent,"[1]; Melanoma, MALME-3M",71.16%
same,Growth Percent,"[1]; Melanoma, MDA-MB-435",3.47%
same,Growth Percent,"[1]; Melanoma, SK-MEL-2",51.68%
same,Growth Percent,"[1]; Melanoma, SK-MEL-5",34.54%
same,Growth Percent,"[1]; Melanoma, SK-MEL-28",27.28%
same,Growth Percent,"[1]; Melanoma, UACC-62",39.84%
same,Growth Percent,"[1]; Melanoma, UACC-257",69.33%
same,Growth Percent,[1]; [2],57.08%
same,Growth Percent,[1]; [3],73.21%
same,Growth Percent,[1]; [4],34.18%
same,Growth Percent,[1]; [5],103.92%
same,Growth Percent,[1]; [6],67.34%
same,Growth Percent,[1]; [7],63.92%
same,Growth Percent,[1]; [8],78.38%
same,Growth Percent,[1]; [9],6.06%
same,Growth Percent,"[1]; Ovarian Cancer, IGROV1",11.15%
same,Growth Percent,"[1]; Ovarian Cancer, NCI/ADR-RES",36.29%
same,Growth Percent,"[1]; Ovarian Cancer, OVCAR-3",−31.62%
same,Growth Percent,"[1]; Ovarian Cancer, OVCAR-4",64.10%
same,Growth Percent,"[1]; Ovarian Cancer, OVCAR-5",92.21%
same,Growth Percent,"[1]; Ovarian Cancer, OVCAR-8",−8.95%
same,Growth Percent,"[1]; Ovarian Cancer, SK-OV-3",89.65%
same,Growth Percent,"[1]; Prostate Cancer, DU-145",14.25%
same,Growth Percent,"[1]; Prostate Cancer, PC-3",39.21%
same,Growth Percent,"[1]; Renal Cancer, 786-0",−49.68%
same,Growth Percent,"[1]; Renal Cancer, ACHN",36.78%
same,Growth Percent,"[1]; Renal Cancer, CAKI-1",49.02%
same,Growth Percent,"[1]; Renal Cancer, RXF 393",−32.33%
same,Growth Percent,"[1]; Renal Cancer, SN12C",10.11%
same,Growth Percent,"[1]; Renal Cancer, TK-10",65.01%
same,Growth Percent,"[1]; Renal Cancer, UO-31",26.06%
same,IC50,"SK-MEL-25; Homo sapiens, SK-MEL-25 melanoma cells (head prints SK-25), read-out: SK-25 IC50",> 20000 nM
same,SK-MEL-25 (% viability),"SK-MEL-25; human, 24 h",13.15%
same,SK-MEL-28 (% viability),"SK-MEL-28; human, 24 h",13.79%
same,Growth Percent,HCT-15 (Colon Cancer),−30.18%
same,GI50,RPMI-8226,465 nM
same,CC50,RPMI-8226,> 100000 nM
same,TGI,RPMI-8226,2.47E−6
same,GI50,SR,241 nM
same,CC50,SR,> 100000 nM
same,TGI,SR,6.10E−6
